In the data set the test system is CCRIS mutagenicity, Ames/micronucleus/aberration tests. The experiment in a line: CCRIS mutagenicity studies.

The source made the active and inactive calls. No rule for the calls is given here.

With `COC(=O)CC(C)=O`, the mutagenic call is “inactive; negative” (End Point: In vitro chromosomal aberrations, Test System: Chinese hamster lung (CHL/IU) cells, Metabolic Activation: None); “active; positive (ploidy)” (End Point: In vitro chromosomal aberrations, Test System: Chinese hamster lung (CHL/IU) cells, Metabolic Activation: Rat, Liver, S9, Phenobarbital and 5,6-benzoflavone); “inactive; negative” (Test System: AMES SALMONELLA TYPHIMURIUM, Strain/Indicator: TA98, Metabolic Activation: NONE, Method: PREINCUBATION); “inactive; negative” (Test System: AMES SALMONELLA TYPHIMURIUM, Strain/Indicator: TA98, Metabolic Activation: RAT LIVER S-9, PHENOBARBITAL AND BETA-NAPHTHOFLAVONE, Method: PREINCUBATION); “inactive; negative” (Test System: AMES SALMONELLA TYPHIMURIUM, Strain/Indicator: TA98, Metabolic Activation: RAT, LIVER, S-9, KC 500, Method: PREINCUBATION); “inactive; negative” (Test System: AMES SALMONELLA TYPHIMURIUM, Strain/Indicator: TA100, Metabolic Activation: NONE, Method: PREINCUBATION). The mutagenic call is “inactive; negative” (Test System: AMES SALMONELLA TYPHIMURIUM, Strain/Indicator: TA100, Metabolic Activation: RAT LIVER S-9, PHENOBARBITAL AND BETA-NAPHTHOFLAVONE, Method: PREINCUBATION); “inactive; negative” (Test System: AMES SALMONELLA TYPHIMURIUM, Strain/Indicator: TA100, Metabolic Activation: RAT, LIVER, S-9, KC 500, Method: PREINCUBATION); “inactive; negative” (Test System: AMES SALMONELLA TYPHIMURIUM, Strain/Indicator: TA1535, Metabolic Activation: NONE, Method: PREINCUBATION); “inactive; negative” (Test System: AMES SALMONELLA TYPHIMURIUM, Strain/Indicator: TA1535, Metabolic Activation: RAT LIVER S-9, PHENOBARBITAL AND BETA-NAPHTHOFLAVONE, Method: PREINCUBATION); “inactive; negative” (Test System: AMES SALMONELLA TYPHIMURIUM, Strain/Indicator: TA1535, Metabolic Activation: RAT, LIVER, S-9, KC 500, Method: PREINCUBATION); “inactive; negative” (Test System: AMES SALMONELLA TYPHIMURIUM, Strain/Indicator: TA1537, Metabolic Activation: NONE, Method: PREINCUBATION). The mutagenic call (Test System: AMES SALMONELLA TYPHIMURIUM, Strain/Indicator: TA1537, Metabolic Activation: RAT LIVER S-9, PHENOBARBITAL AND BETA-NAPHTHOFLAVONE, Method: PREINCUBATION) was “inactive; negative”; the mutagenic call (Test System: AMES SALMONELLA TYPHIMURIUM, Strain/Indicator: TA1537, Metabolic Activation: RAT, LIVER, S-9, KC 500, Method: PREINCUBATION) is “inactive; negative”; the mutagenic call (Test System: AMES SALMONELLA TYPHIMURIUM, Strain/Indicator: TA1538, Metabolic Activation: NONE, Method: PREINCUBATION) was “inactive; negative”; the mutagenic call (Test System: AMES SALMONELLA TYPHIMURIUM, Strain/Indicator: TA1538, Metabolic Activation: RAT, LIVER, S-9, KC 500, Method: PREINCUBATION) was “inactive; negative”; the mutagenic call (Test System: E. COLI, Strain/Indicator: WP2 UVRA, Metabolic Activation: NONE, Method: PREINCUBATION) is “inactive; negative”; the mutagenic call (Test System: E. COLI, Strain/Indicator: WP2 UVRA, Metabolic Activation: RAT, LIVER, S-9, KC 500, Method: PREINCUBATION) was “inactive; negative”. The mutagenic call is, setting by setting: (Test System: E.COLI, Strain/Indicator: WP2UVRA/PKM101, Metabolic Activation: NONE, Method: PREINCUBATION) “inactive; negative”; (Test System: E.COLI, Strain/Indicator: WP2UVRA/PKM101, Metabolic Activation: RAT LIVER S-9, PHENOBARBITAL AND BETA-NAPHTHOFLAVONE, Method: PREINCUBATION) “inactive; negative”.

`N#CC(Cl)(Cl)Cl`: the mutagenic call is “inactive; negative” (Test System: AMES SALMONELLA TYPHIMURIUM, Strain/Indicator: TA98, Metabolic Activation: NONE, Method: FLUCTUATION (MICROTITER)); “inactive; negative” (Test System: AMES SALMONELLA TYPHIMURIUM, Strain/Indicator: TA98, Metabolic Activation: NONE, Method: STANDARD PLATE); “inactive; negative” (Test System: AMES SALMONELLA TYPHIMURIUM, Strain/Indicator: TA98, Metabolic Activation: RAT LIVER S-9, AROCLOR 1254, Method: FLUCTUATION (MICROTITER)); “inactive; negative” (Test System: AMES SALMONELLA TYPHIMURIUM, Strain/Indicator: TA98, Metabolic Activation: RAT, LIVER, S-9, AROCLOR 1254, Method: STANDARD PLATE); “active; positive” (Test System: AMES SALMONELLA TYPHIMURIUM, Strain/Indicator: TA100, Metabolic Activation: NONE, Method: FLUCTUATION TEST); “inactive; negative” (Test System: AMES SALMONELLA TYPHIMURIUM, Strain/Indicator: TA100, Metabolic Activation: NONE, Method: STANDARD PLATE). Further, the mutagenic call reads like this: (Test System: AMES SALMONELLA TYPHIMURIUM, Strain/Indicator: TA100, Metabolic Activation: RAT, LIVER, S-9, AROCLOR 1254, Method: FLUCTUATION TEST) “inactive; negative”; (Test System: AMES SALMONELLA TYPHIMURIUM, Strain/Indicator: TA100, Metabolic Activation: RAT, LIVER, S-9, AROCLOR 1254, Method: STANDARD PLATE) “inactive; negative”; (Test System: AMES SALMONELLA TYPHIMURIUM, Strain/Indicator: TA1535, Metabolic Activation: NONE, Method: STANDARD PLATE) “inactive; negative”; (Test System: AMES SALMONELLA TYPHIMURIUM, Strain/Indicator: TA1535, Metabolic Activation: RAT, LIVER, S-9, AROCLOR 1254, Method: STANDARD PLATE) “inactive; negative”; (Test System: AMES SALMONELLA TYPHIMURIUM, Strain/Indicator: TA1537, Metabolic Activation: NONE, Method: FLUCTUATION (MICROTITER)) “inactive; negative”; (Test System: AMES SALMONELLA TYPHIMURIUM, Strain/Indicator: TA1537, Metabolic Activation: RAT LIVER S-9, AROCLOR 1254, Method: FLUCTUATION (MICROTITER)) “inactive; negative”. Also, the mutagenic call was “inactive; negative” (Test System: AMES SALMONELLA TYPHIMURIUM, Strain/Indicator: TA7001, Metabolic Activation: NONE, Method: FLUCTUATION (MICROTITER)); “inactive; negative” (Test System: AMES SALMONELLA TYPHIMURIUM, Strain/Indicator: TA7001, Metabolic Activation: RAT LIVER S-9, AROCLOR 1254, Method: FLUCTUATION (MICROTITER)); “inactive; negative” (Test System: AMES SALMONELLA TYPHIMURIUM, Strain/Indicator: TA7002, Metabolic Activation: NONE, Method: FLUCTUATION (MICROTITER)); “inactive; negative” (Test System: AMES SALMONELLA TYPHIMURIUM, Strain/Indicator: TA7002, Metabolic Activation: RAT LIVER S-9, AROCLOR 1254, Method: FLUCTUATION (MICROTITER)); “inactive; negative” (Test System: AMES SALMONELLA TYPHIMURIUM, Strain/Indicator: TA7003, Metabolic Activation: NONE, Method: FLUCTUATION (MICROTITER)); “inactive; negative” (Test System: AMES SALMONELLA TYPHIMURIUM, Strain/Indicator: TA7003, Metabolic Activation: RAT LIVER S-9, AROCLOR 1254, Method: FLUCTUATION (MICROTITER)). For the same compound, the mutagenic call reads like this: (Test System: AMES SALMONELLA TYPHIMURIUM, Strain/Indicator: TA7004, Metabolic Activation: NONE, Method: FLUCTUATION (MICROTITER)) “inactive; negative”; (Test System: AMES SALMONELLA TYPHIMURIUM, Strain/Indicator: TA7004, Metabolic Activation: RAT LIVER S-9, AROCLOR 1254, Method: FLUCTUATION (MICROTITER)) “inactive; negative”; (Test System: AMES SALMONELLA TYPHIMURIUM, Strain/Indicator: TA7005, Metabolic Activation: NONE, Method: FLUCTUATION (MICROTITER)) “inactive; negative”; (Test System: AMES SALMONELLA TYPHIMURIUM, Strain/Indicator: TA7005, Metabolic Activation: RAT LIVER S-9, AROCLOR 1254, Method: FLUCTUATION (MICROTITER)) “inactive; negative”; (Test System: AMES SALMONELLA TYPHIMURIUM, Strain/Indicator: TA7006, Metabolic Activation: NONE, Method: FLUCTUATION (MICROTITER)) “inactive; negative”; (Test System: AMES SALMONELLA TYPHIMURIUM, Strain/Indicator: TA7006, Metabolic Activation: RAT LIVER S-9, AROCLOR 1254, Method: FLUCTUATION (MICROTITER)) “inactive; negative”.

These data come from PubChem BioAssay AID1259407 (Chemical Carcinogenesis Research Information System (CCRIS), 2018).
